According to US8338177B2, “Cell culture medium” (Lonza Biologics PLC, priority 2002, dated 2012):

Legend:
[1] = system: cultured human endothelial cells; conditions: acetate at 5 mM; cited from earlier work
[2] = system: GS-NS0 cell line 6A1(100)3; assay: GS-NS0 6A1 fed-batch culture (shake flask / airlift bioreactor): growth and antibody productivity by protein A-HPLC; conditions: for single cell productivity (qp): fed-batch shake flask
Protocol: (§1) Where not specified, antibody productivity or titer was determined by protein A-HPLC.
The GS-NS0 cell line 6A1(100)3, 6A1 for short, secreting recombinant mouse/human chimeric IgG cB72.3 (Bebbington, 1992, supra) was used in all experimental settings under this section. Cell culture was either carried out in shake flask culture or in a fed-batch mode in a 101 standard airlift bioreactor, essentially as described (Bebbington, 1992). Feeds essentially comprised amino acids and carbohydrate as described above for high-density media and fermentation, respectively. Feed volume was at 4% of post-inocculation volume. Feed was initiated at a rate of 0.2 ml/Lh when viable cell density exceeded 14×10^5 cells/ml. Temperature was controlled at 36.5 degree centigrade; for airlift, air saturation was at 15%. pH was controlled at pH 7.00. Culture was inoculated at 2×10^5 viable cells/ml. Medium is serum- and essentially protein-free growth medium ProCH04-CDM (BioWhittaker) supplemented with […] methionine sulfoximine (MSX). Cells were pre-adapted to medium. […] Positively, it did prolong stationary phase upon fermentation.
Cumulative cell time (10^6 cell/h ml) was calculated by integration of the cell growth curve, essentially as described by Renard et al. (1988, Biotechnology Letters 10, 91-96).
Either sodium acetate or potassium acetate were added to shake flask culture during mid-exponential growth phase to the final concentrations stated in the respective sections of the table of FIG. 1. Cultures were counted daily by Trypan blue method and samples were taken for product analysis by means of protein A fractionation and HPLC analysis.
Duplicate cultures both for control and 10 mM sodium acetate supplemented culture were tested for viable cell concentration (determined by Trypan blue exclusion standard counting test). Feed was started at day 4. The acetate was not fed during growth phase as in FIG. 1 but was included in cell culture production medium right away to which the inocculum cells were added. […] The CCT remained essentially similar for all cultures.
Exp. 2 was conducted essentially as described above for exp. 1/FIG. 2, except that now 7.5 mM sodium acetate and a proprietary high-density culture medium was used, similar to the lipid supplemented high-density media described in EP435 911 A but distinct in employing less ethanolamine and no thioglycerole and keeping Tryptophan concentration constant at 19 mM by sensor-controlled automatic feeding. […] In contrast to exp. 1, the same maximum viable cell density could be achieved in the presence of actetate as compared to the control without acetate in the absence of any adverse effect on duration of stationary phase growth. Similarly, product concentration increased steadily over control and over time (FIG. 6).
In the permissible range, no increase in productivity could be seen at all, not even at the single cell level. The experiment was conducted essentially as described in exp. 1/FIG. 2, except that butyrate was added in the amounts shown instead of acetate. […] FIG. 9-11 show the effect of butyrate addition on CCT, antibody titer at harvest and single cell specific productivity (qp).

CHO cell culture = conditions: added to medium with 1 mM sodium butyrate; lithium salts 10 mM, LPS 1 μg/ml, sodium acetate 10 mM; cited from earlier work
[3] = system: hybridoma cell line VPM 8; assay: VPM 8 hybridoma culture: CCT, harvest antibody titer, specific productivity
Protocol: as §1
A dose response study for addition of sodium acetate was carried out for hybridoma cell line VPM 8 (ECACC No. 93113024, European Collection of cell cultures, supra) essentially as described in exp. 3, except that VPM 8 was grown in commercial, protein-free medium CD-Hybridoma (Invitrogen/U.K.) and in that no MSX was added, since not being a GS cell line. VPM 8 is a mouse hybridoma that was generated by conventional means of cell fusion with non-secreting myeloma cells and secretes a murine IgG1 antibody.
The experiment has been carried out essentially as described in exp. 5, except that acetate was substituted with n-butyrate in the amounts stated in the figures.

[4] = 7.5 mM, high-density medium, Experiment 2
[5] = added during mid-exponential growth phase
[6] = CD-Hybridoma protein-free medium, Experiment 5

For `CC(=O)[O-].[Na+]` [sodium acetate], the “expression-enhancing effect on tPA production” value (shortened to “expression-enhancing effect”) [1] is listed as “did not differ significantly from the control”, the “cell growth parameters (cell growth rate and cumulative cell time)” value [2, 4] is listed as “only small decreases” and the harvest antibody concentration [2, 4] is listed as “large increase”. For the same compound, the “productivity in fed-batch shake flask culture” value ([2]; 10 mM, added during mid-exponential growth phase, compared with potassium acetate at 10 mM or 15 mM) was “performed even better than potassium acetate”, the effect on growth ([2]; Experiment 1, acetate supplementation) was “not to suppress growth” and the “Increases in protein yield” value ([2]; acetate-supplemented culture compared to control, Experiment 1) was “up to 98%”. For the same compound, the “growth suppression in terms of maximum cell density” value ([2]; fed-batch bioreactor, 10 mM included in production medium) was “No significant growth suppression”, the “single cell productivity (qp)” value [2, 5] was “increased” and the protein yield ([2]; grown with 10 mM acetate (control 470 mg/L)) was 768 mg/L. The “optimal concentration with regard to antibody yield and process robustness” value ([2]; proprietary high-density culture medium, Experiment 2) was 7.5 mM, the “protein yield enhancing effect in comparison to the butyrate control” value (CHO cell culture) was “literally no benefit over the control” and the “productivity compared to non-treated control” value [3, 6] was “enhanced productivity”. The “tolerance by the cells” value [3, 6] was “tolerates acetate surprisingly easily in the mM range”.

For `[Cl-].[Li+]` [LiCl, reference compound], the “modification of the effect of acetate addition” value ([2]; feed supplemented to final approx. 1-10 mM, data not shown) was “did not prove to modify the effect of acetate addition in any way”.

For “lipopolysaccharide [LPS, reference compound]”, the “protein yield enhancing effect in comparison to the butyrate control” value (CHO cell culture) is given as “about 4 times”.

In the case of `CC(=O)[O-].[K+]` [potassium acetate], the “single cell productivity (qp)” value [2, 5] is reported as “increased”.

For `CCC(=O)O` [proprionate], the “expression-enhancing effect” value [1] is given as “found to have such effect”.

For `CCCC(=O)[O-].[Na+]` [Butyrate, sodium n-butyrate, reference compound], the “expression-enhancing effect” value [1] is given as “outstanding effect”, the “dose strongly toxic to the cells (rapid decrease of viable cell density)” value ([2]; Experiment 4) is given as > 1 mM and the antibody productivity ([2]; butyrate added instead of acetate, Experiment 4) is given as “does not increase antibody productivity”. For the same compound, the antibody titer ([3]; Experiment 6) was “not effective in increasing antibody titer” and the “toxicity for the cell line” value ([3]; Experiment 6) was “exceptional toxicity”.

For `CCCCC(=O)O` [valerate], the “expression-enhancing effect” value [1] is listed as “found to have such effect”.
